Assays:
Met kinase [1] = target: T1, Met kinase (Homo sapiens, UniProt P08581); test: Met kinase flashplate method (enzyme); type: biochemical; parameters: 6His (N); purchased Upstate 14-526; host or cells: Sf21 insect cells (S. frugiperda), baculovirus; details: Met kinase inhibition
Excerpt: According to the manufacturer's data (Met, active, Upstate, catalogue No. 14-526), Met kinase is expressed for the purposes of protein production in insect cells (Sf21; S. frugiperda) and subsequent affinity-chromatographic purification as “N-terminal 6His-tagged” recombinant human protein in a baculovirus expression vector.
Flashplate Method (Met Kinase)
The test plates used are 96-well Flashplate® microtitre plates from Perkin Elmer (Cat. No. SMP200). The components of the kinase reaction described below are pipetted into the assay plate. The Met kinase and the substrate poly Ala-Glu-Lys-Tyr, (pAGLT, 6:2:5:1), are incubated for 3 hrs at room temperature with radioactively labelled ^33P-ATP in the presence and absence of test substances in a total volume of 100 μl. The reaction is terminated using 150 μl of a 60 mM EDTA solution. After incubation for a further 30 min at room temperature, the supernatants are filtered off with suction, and the wells are washed three times with 200 μl of 0.9% NaCl solution each time. The measurement of the bound radioactivity is carried out by means of a scintillation measuring instrument (Topcount NXT, Perkin-Elmer).
The full value used is the inhibitor-free kinase reaction. This should be approximately in the range 6000-9000 cpm. The pharmacological zero value used is staurosporin in a final concentration of 0.1 mM. The inhibitory values (IC50) are determined using the RS1_MTS program.
Kinase reaction conditions per well:
10 μl of substance to be tested in assay buffer with 10% of DMSO
10 μl of ATP (final concentration 1 μM cold, 0.35 μCi of ^33P-ATP)
50 μl of Met kinase/substrate mixture in assay buffer;
• (10 ng of enzyme/well, 50 ng of pAGLT/well) • Solutions used: • Assay buffer: • 50 mM HEPES • 3 mM magnesium chloride • 3 μM sodium orthovanadate • 3 mM manganese(II) chloride • 1 mM dithiothreitol (DTT) • pH=7.5 (to be set using sodium hydroxide) • Stop solution: • 60 mM Titriplex III (EDTA) • ^33P-ATP: Perkin-Elmer; • Met kinase: Upstate, Cat, No. 14-526, Stock 1 μg/10 μl; spec. activity 954 U/mg; • Poly-Ala-Glu-Lys-Tyr, 6:2:5:1: Sigma Cat. No. P1152 In-Vivo Tests
Target sequence in this assay (P08581 974-1390 limits assumed): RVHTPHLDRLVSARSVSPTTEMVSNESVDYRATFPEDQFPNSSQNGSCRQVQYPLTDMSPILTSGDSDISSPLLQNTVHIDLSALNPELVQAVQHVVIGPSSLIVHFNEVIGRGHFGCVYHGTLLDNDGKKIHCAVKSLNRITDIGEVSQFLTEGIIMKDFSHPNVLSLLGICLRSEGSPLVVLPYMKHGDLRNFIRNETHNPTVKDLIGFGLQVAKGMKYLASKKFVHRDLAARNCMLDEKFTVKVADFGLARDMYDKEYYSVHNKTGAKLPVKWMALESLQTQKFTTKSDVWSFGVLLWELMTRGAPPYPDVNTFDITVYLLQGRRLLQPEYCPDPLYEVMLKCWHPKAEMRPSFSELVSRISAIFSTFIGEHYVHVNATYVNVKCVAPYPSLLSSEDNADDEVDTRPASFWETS

Met kinase [2] = target: T1, Met kinase; test: Met kinase inhibition (cell); type: cell-based
Target sequence in this assay (P08581 25-1390): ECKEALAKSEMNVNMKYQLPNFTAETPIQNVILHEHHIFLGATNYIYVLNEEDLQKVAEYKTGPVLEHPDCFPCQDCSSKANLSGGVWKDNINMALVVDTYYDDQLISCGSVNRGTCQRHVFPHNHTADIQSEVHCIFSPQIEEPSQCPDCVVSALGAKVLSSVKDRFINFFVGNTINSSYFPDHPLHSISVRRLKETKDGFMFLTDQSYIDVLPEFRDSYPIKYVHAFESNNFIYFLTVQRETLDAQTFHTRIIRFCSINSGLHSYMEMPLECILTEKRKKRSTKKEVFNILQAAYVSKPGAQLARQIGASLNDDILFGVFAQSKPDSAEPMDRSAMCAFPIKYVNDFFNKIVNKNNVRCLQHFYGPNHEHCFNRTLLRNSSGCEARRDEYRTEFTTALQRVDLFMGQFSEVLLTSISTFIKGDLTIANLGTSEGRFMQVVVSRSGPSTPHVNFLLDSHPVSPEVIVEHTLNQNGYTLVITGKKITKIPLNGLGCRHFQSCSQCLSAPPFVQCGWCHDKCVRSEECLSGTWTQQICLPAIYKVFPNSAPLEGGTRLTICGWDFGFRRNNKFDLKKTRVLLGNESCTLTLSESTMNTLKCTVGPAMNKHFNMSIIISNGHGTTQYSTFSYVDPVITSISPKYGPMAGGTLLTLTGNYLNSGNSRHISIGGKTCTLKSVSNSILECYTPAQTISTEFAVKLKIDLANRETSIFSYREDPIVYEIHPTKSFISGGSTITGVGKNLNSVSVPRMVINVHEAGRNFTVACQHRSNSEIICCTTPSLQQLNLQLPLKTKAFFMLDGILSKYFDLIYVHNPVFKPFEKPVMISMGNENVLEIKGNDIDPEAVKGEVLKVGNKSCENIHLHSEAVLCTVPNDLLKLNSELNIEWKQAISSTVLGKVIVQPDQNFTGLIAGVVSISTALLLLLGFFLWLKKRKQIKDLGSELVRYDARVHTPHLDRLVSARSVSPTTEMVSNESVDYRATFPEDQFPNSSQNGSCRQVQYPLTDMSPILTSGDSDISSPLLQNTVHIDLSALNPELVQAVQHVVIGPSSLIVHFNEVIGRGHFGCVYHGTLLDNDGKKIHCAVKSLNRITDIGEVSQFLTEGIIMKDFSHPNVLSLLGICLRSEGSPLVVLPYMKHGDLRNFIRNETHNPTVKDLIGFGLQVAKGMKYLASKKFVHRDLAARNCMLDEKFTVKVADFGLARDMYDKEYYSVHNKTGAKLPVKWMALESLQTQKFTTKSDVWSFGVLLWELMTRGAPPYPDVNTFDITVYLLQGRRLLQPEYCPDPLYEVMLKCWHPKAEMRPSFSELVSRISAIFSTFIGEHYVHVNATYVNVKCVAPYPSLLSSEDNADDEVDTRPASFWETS

Row | IC50 (Met kinase [1]) [nM] | IC50 (Met kinase [2]) [nM] | Structure (SMILES)
1 | 1 to 100 | > 10000 | COCCOc1cnc(-c2cccc(Cc3nnc4ccc(C(=O)NCCO)nn34)c2)nc1 [A41]
2 | 1 to 100 | 100 to 10000 | COCCOc1cnc(-c2cccc(Cc3nnc4ccc(C(=O)N(C)C)nn34)c2)nc1 [A40]
3 | 1 to 100 | 100 to 10000 | CCCNC(=O)c1ccc2nnc(Cc3cccc(-c4ncc(OCCOC)cn4)c3)n2n1 [A39, N-propyl-3-{3-[5-(2-methoxyethoxy)pyrimidin-2-yl]benzyl}-1,2,4-triazolo[4,3-b]pyridazine-6-carboxamide]

The remaining lines, values behind:

Row | Structure (SMILES) | IC50 (Met kinase [1]) [nM] | IC50 (Met kinase [2]) [nM]
4 | COc1ccc2nnc(C(F)(F)c3cccc(-c4ncc(-c5cnn(CCN6CCCC6)c5)cn4)c3)n2n1 [A20] | 1 to 100 | 1 to 100
5 | CNC(=O)c1ccc2nnc(Cc3cccc(-c4ncc(OCCOC)cn4)c3)n2n1 [A28] | 1 to 100 | 100 to 10000
6 | COCCOc1cnc(-c2cccc(Cc3nnc4ccc(C(=O)O)nn34)c2)nc1 [A38, 3-{3-[5-(2-methoxyethoxy)pyrimidin-2-yl]benzyl}-1,2,4-triazolo[4,3-b]pyridazine-6-carboxylic acid] | 1 to 100 | 100 to 10000

Source: patent US8426397B2, “3 (3-pyrimidin-2-ylbenzyl)-1,2,4-triazolo[4,3-b]pyridazine derivatives” (Merck Patent Gesellschaft mit Beschränkter Haftung, priority 2008, dated 2013)
